Source: US12351587B2, “Bicyclic compound as RIP-1 kinase inhibitor and application thereof” (MEDSHINE DISCOVERY INC., priority 2019, dated 2025)

tested on: L929 cells; assay: In vitro activity assay of mouse RIP1: L929 cell TNFα/QVD-OPh-induced necroptosis; type: cell-based; conditions: TNF-α 50 ng/mL + Q-VD 50 μM, 24 h, CellTiter Glo
Experimental: Assay Example 2: In Vitro Activity Assay of Mouse RIP1
L929 (purchased from ATCC, Item No.: CCL-1)
Instrument Microplate reader (Perkin Elmer, Envision) Formulation of Reagents L929 cell complete medium: EMEM+10% horse serum (volume ratio)+1% double antibiotics (volume ratio) Assay Step • 1. The cultured L929 cells were digested with trypsin, centrifuged, resuspended in complete culture medium, and then counted. The cell concentration was then diluted to 1×10^5/mL with complete culture medium. • 2. The cell suspension was added to a 96-well plate at 100 μL per well and incubated at 37° C. and 5% CO2 for 24 h. • 3. Different concentrations of assay compounds were added to each well, and dimethyl sulfoxide was added to the control group. The plate was incubated at 37° C. and 5% CO2 for 1 h. • 4. To each well were added TNF-α at a final concentration of 50 ng/mL and Q-VD at a final concentration of 50 μM, and the plate was incubated at 37° C. and 5% CO2 for 24 h. • 5. To each well was added 50 μL of CellTiter Glo […], and the plate was shaken in the dark for 10 min. • 6. The plate was read on the microplate reader.

| SMILES | IC50 [µM] |
| --- | --- |
| CN1C(=S)[C@@H](NC(=O)c2ncn(Cc3ccc(F)cc3)n2)COc2cccnc21 [WX031] | 0.174 |
| CN1C(=S)[C@@H](NC(=O)c2ncn(Cc3cccc(C#N)c3)n2)COc2cccnc21 [WX032] | 0.255 |
| CN1C(=S)[C@@H](NC(=O)c2ncn(Cc3cccc(F)c3)n2)COc2cccnc21 [WX029] | 0.184 |
| Cc1ccc(Cn2cnc(C(=O)N[C@H]3COc4cccnc4N(C)C3=S)n2)cc1 [WX039] | 0.064 |
| CN1C(=S)[C@@H](NC(=O)c2nc(Cc3ccccc3)n[nH]2)COc2cccnc21 [WX003] | 1.21 |
| CN1C(=S)[C@@H](NC(=O)c2nc(Cc3ccccc3)n[nH]2)COc2ccccc21 [WX001] | 1.16 |
| [2H]C([2H])([2H])N1C(=S)[C@@H](NC(=O)c2n[nH]c(Cc3ccccc3)n2)COc2cccnc21 [WX005] | 1.31 |
| CN1C(=S)[C@@H](NC(=O)c2nc(Cl)n(Cc3ccccc3)n2)COc2cccnc21 [WX011] | 0.011 |
| CN1C(=S)[C@@H](NC(=O)c2nc3n(n2)[C@H](c2ccccc2)CC3)COc2cccnc21 [WX013] | 0.014 |
| CN1C(=S)[C@@H](NC(=O)c2ncn(Cc3c(F)cccc3F)n2)COc2cccnc21 [WX020] | 0.029 |
| CN1C(=S)[C@@H](NC(=O)c2nc3n(n2)CCO[C@H]3c2ccccc2)COc2cccnc21 (single isomer, unassigned) [WX028] | 0.065 |
| CN1C(=S)[C@@H](NC(=O)c2nc(Cl)n(Cc3cccc(C#N)c3)n2)COc2cccnc21 [WX008] | 0.047 |
| CN1C(=S)[C@@H](NC(=O)c2ncn(Cc3ccccc3F)n2)COc2cccnc21 [WX019] | 0.051 |
| CN1C(=S)[C@@H](NC(=O)c2ncn(Cc3ccccc3)n2)COc2cc(Cl)cnc21 [WX021] | 0.445 |

tested on: not listed separately; assay: Pharmacokinetic parameters in dogs; type: in vivo; conditions: beagle, plasma, 1 mg/kg; dog, iv = 1 mpk
Experimental: Four healthy adult beagle dogs were selected and randomly divided into two groups. One group was given the assay compound by intravenous injection, and the other group was given the assay compound by gavage. Plasma samples were collected respectively from animals in the intravenous group and gavage group at 0.083, 0.25, 0.5, 1.0, 2.0, 4.0, 6.0, 8.0, 24 hours after administration. The blood concentration was determined by LC-MS/MS method. Relevant pharmacokinetic parameters were calculated by WinNonlin™ Version 6.3 (Pharsight. Mountain View, CA) pharmacokinetic software using non-compartmental model and linear logarithmic trapezoidal method. AUC0-last represents the area under the plasma concentration-time curve from zero time point to the last detectable concentration time point; Cmax represents the peak concentration; Tmax represents the time to reach the peak; T1/2 represents the half-life; CL represents the clearance rate; Vdss represents apparent volume of distribution; p.o. represents per os; i.v. represents intravenous injection; and F % represents oral bioavailability.

| SMILES | AUC(0-t) [µM·h] | clearance [mL/min/kg] | half-life [h] |
| --- | --- | --- | --- |
| CN1C(=S)[C@@H](NC(=O)c2nc3n(n2)[C@H](c2ccccc2)CC3)COc2cccnc21 [WX013] | 7.42 | 5.18 | 4.89 |

same assay, conditions: beagle, plasma, 1 mg/kg; dog, iv = 1 mpk; read-out: Vdss

| SMILES | Vd [L/kg] |
| --- | --- |
| CN1C(=S)[C@@H](NC(=O)c2nc3n(n2)[C@H](c2ccccc2)CC3)COc2cccnc21 [WX013] | 2.02 |

same assay, conditions: beagle, plasma, 5 mg/kg; dog, po = 5 mpk

| SMILES | AUC(0-t) [µM·h] |
| --- | --- |
| CN1C(=S)[C@@H](NC(=O)c2nc3n(n2)[C@H](c2ccccc2)CC3)COc2cccnc21 [WX013] | 27.7 |

same assay, conditions: beagle, plasma; dog, po = 5 mpk vs iv = 1 mpk

| SMILES | bioavailability [%] |
| --- | --- |
| CN1C(=S)[C@@H](NC(=O)c2nc3n(n2)[C@H](c2ccccc2)CC3)COc2cccnc21 [WX013] | 80.1 |

tested on: U937 cells; assay: U937 cell activity assay: TNFα/QVD-OPh-induced programmed cell necrosis (necroptosis); type: cell-based, human; conditions: Homo sapiens, U-937, 24 h, QVD-OPh 25 μM + TNF-α 100 ng/mL, CellTiter Glo
Experimental: 1.2 Instrument and Materials
Envision plate reader (Perkin Elmer, Cat #2104-0010)
1.3 Formulation of Reagents • (1) 1×DPSB: To 100 mL of 10×DPBS was added 900 mL of deionized water. • (2) 1640 complete medium: To 89 mL of RPMI-1640 medium were added 10 mL of FBS and 1 mL of penicillin/streptomycin 2. Assay Steps • 1. U937 cells were centrifuged, and then the medium was discarded. The cells were resuspended in 1640 complete medium and counted. The cell concentration was adjusted to 5×10^5 cells/mL for use, and the cells were arranged according to compounds to be assayed. • 2. To the prepared resuspension of U937 cells were added QVD-OPh at a final concentration of 25 μM and TNF-α at a final concentration of 100 ng/mL, and then the mixture was mixed gently. • 3. To a 384-well plate was added 30 μL/well of U937 cells containing 25 μM of QVD-OPh and TNF-α at a final concentration of 100 ng/mL, and blank control wells without QVD-OPh and TNF-α were set up. • 4. To the dosing group […] added 10 μL of the assay compound at 4 times the preset concentration, and to the blank control well was added DMSO at the corresponding concentration. • 5. The 384-well plate was placed in a 37° C. and 5% CO2 cell incubator for 24 hours. • 6. After 24 hours, the 384-well plate was taken out and equilibrated at room temperature for 20 minutes. • 7. 40 μL of CTG was added to each well, and then the plate was shaken on a shaker in the dark for 2 minutes. • 8. The plate was incubated at room temperature in the dark for 10 minutes, and then read using an Envision plate reader.

| SMILES | IC50 [nM] |
| --- | --- |
| COc1cccc(Cn2cnc(C(=O)N[C@H]3COc4cccnc4N(C)C3=S)n2)c1 [WX042] | 24.8 |
| CN1C(=S)[C@@H](NC(=O)c2ncn(Cc3ccc(F)cc3)n2)COc2cccnc21 [WX031] | 2.4 |
| CN1C(=S)[C@@H](NC(=O)c2ncn(Cc3cccc(Br)c3)n2)COc2cccnc21 [WX037] | 24 |
| CN1C(=S)[C@@H](NC(=O)c2ncn(Cc3ccc(C(F)(F)F)cc3)n2)COc2cccnc21 [WX041] | 86.5 |
| CN1C(=S)[C@@H](NC(=O)c2ncn(Cc3cccc(C#N)c3)n2)COc2cccnc21 [WX032] | 5.7 |
| CN1C(=S)[C@@H](NC(=O)c2ncn(Cc3cccc(F)c3)n2)COc2cccnc21 [WX029] | 2.2 |
| Cc1ccccc1Cn1cnc(C(=O)N[C@H]2COc3cccnc3N(C)C2=S)n1 [WX035] | 4.9 |
| Cc1cccc(Cn2cnc(C(=O)N[C@H]3COc4cccnc4N(C)C3=S)n2)c1 [WX033] | 7.6 |
| CN1C(=S)[C@@H](NC(=O)c2cc(Cc3ccccc3)on2)COc2cccnc21 [WX007] | 70 |
| Cc1ccc(Cn2cnc(C(=O)N[C@H]3COc4cccnc4N(C)C3=S)n2)cc1 [WX039] | 3.4 |
| CN1C(=S)[C@@H](NC(=O)c2ncn(Cc3ccccc3)n2)COc2ccc(C(N)=O)cc21 [WX040] | 4.8 |
| COc1ccccc1Cn1cnc(C(=O)N[C@H]2COc3cccnc3N(C)C2=S)n1 [WX027] | 20 |
| CN1C(=S)[C@@H](NC(=O)c2nc(Cc3ccccc3)n[nH]2)COc2cccnc21 [WX003] | 0.5 |
| CN1C(=S)[C@@H](NC(=O)c2ncn(Cc3ccc(OC(F)(F)F)cc3)n2)COc2cccnc21 [WX038] | 238 |
| CN1C(=S)[C@@H](NC(=O)c2ncn(Cc3ccccc3)n2)COc2ccc(C(=O)O)cc21 [WX024] | 43 |
| COc1ccc(Cn2cnc(C(=O)N[C@H]3COc4cccnc4N(C)C3=S)n2)cc1 [WX030] | 15.6 |
| CN1C(=S)[C@@H](NC(=O)c2nc(Cc3ccccc3)n[nH]2)COc2ccccc21 [WX001] | 0.5 |
| CN1C(=S)[C@@H](NC(=O)c2ncn(Cc3ccccc3F)n2)COc2cc(Cl)cnc21 [WX022] | 20 |
| [2H]C([2H])([2H])N1C(=S)[C@@H](NC(=O)c2n[nH]c(Cc3ccccc3)n2)COc2cccnc21 [WX005] | 2 |
| O=C(N[C@H]1CCc2cc(F)cc(F)c2NC1=S)c1nc(Cc2ccccc2)n[nH]1 [WX014] | 3.7 |

| SMILES | IC50 [nM] |
| --- | --- |
| CN1C(=S)[C@@H](NC(=O)c2nc(Cl)n(Cc3ccccc3)n2)COc2cccnc21 [WX011] | 1.7 |
| CN1C(=S)[C@@H](NC(=O)c2ncn(Cc3ccccc3)n2)COc2ccncc21 [WX025] | 12 |
| CN1C(=S)[C@@H](NC(=O)c2nc3n(n2)[C@H](c2ccccc2)CC3)COc2cccnc21 [WX013] | 1.8 |
| CN1C(=S)[C@@H](NC(=O)c2cn(Cc3ccccc3)cn2)COc2cccnc21 [WX006] | 9 |
| CN1C(=S)[C@@H](NC(=O)c2cc(Oc3ccccc3)ccn2)COc2cccnc21 [WX026] | 5 |
| CN1C(=S)[C@@H](NC(=O)c2nnc(Cc3ccccc3)o2)COc2cccnc21 [WX012] | 12.1 |
| CN1C(=S)[C@@H](NC(=O)c2ncn(Cc3c(F)cccc3F)n2)COc2cccnc21 [WX020] | 0.6 |
| CN1C(=S)[C@@H](NC(=O)c2ncn(Cc3ccccc3)n2)COc2cc(Br)cnc21 [WX023] | 29 |
| CN1C(=S)[C@@H](NC(=O)c2cn(Cc3ccccc3)nn2)COc2cccnc21 [WX010] | 47 |
| CN1C(=S)[C@@H](NC(=O)c2ncn(CC34CC(F)(C3)C4)n2)COc2cccnc21 [WX017] | 59 |
| CN1C(=S)[C@@H](NC(=O)c2nc(Cc3cccc(C#N)c3)n[nH]2)COc2ccccc21 [WX002] | 1.8 |
| CN1C(=S)[C@@H](NC(=O)c2nc(Cc3cccc(C#N)c3)n[nH]2)COc2cccnc21 [WX004] | 0.3 |
| CN1C(=S)[C@@H](NC(=O)c2nc3n(n2)CCO[C@H]3c2ccccc2)COc2cccnc21 (single isomer, unassigned) [WX028] | 4.7 |
| CN1C(=S)[C@@H](NC(=O)c2ncn(Cc3cccc(Cl)c3)n2)COc2cccnc21 [WX036] | 6.4 |
| CN1C(=S)[C@@H](NC(=O)c2nc(Cl)n(Cc3cccc(C#N)c3)n2)COc2cccnc21 [WX008] | 8.1 |
| CN1C(=S)[C@@H](NC(=O)c2ncn(Cc3ccccc3F)n2)COc2cccnc21 [WX019] | 0.6 |
| Cc1nc(C(=O)N[C@H]2COc3cccnc3N(C)C2=S)nn1Cc1ccccc1 [WX016] | 9.8 |
| CN1C(=S)[C@@H](NC(=O)c2ncn(Cc3ccccc3)n2)COc2cc(Cl)cnc21 [WX021] | 13 |
| CN1C(=S)[C@@H](NC(=O)c2ncn(Cc3cc(F)cc(F)c3)n2)COc2cccnc21 [WX034] | 3.7 |

same assay, conditions: QVD-OPh 25 μM + TNF-α 100 ng/mL, 24 hours, CellTiter Glo

| SMILES | IC50 [nM] |
| --- | --- |
| CN1C(=S)[C@@H](NC(=O)c2nnn(Cc3ccccc3)n2)COc2cccnc21 [WX018] | 1.3 |
| CN1C(=S)[C@@H](NC(=O)c2nnn(Cc3ccccc3)n2)COc2cccnc21 [WX015] | 5.1 |
